Data: ChEMBL document CHEMBL5244272 (Eur J Med Chem, 2021)
Values after ≈ are worked out from the molar mass of the structure shown.

What was measured:
Plasmodium vinckei [1] = test: Antimalarial activity against Plasmodium vinckei infected in ip dosed mouse; type: functional
Plasmodium vinckei [2] = test: Antimalarial activity against Plasmodium vinckei infected in po dosed mouse; type: functional
Plasmodium falciparum [3] = test: Antimalarial activity against chloroquine resistant Plasmodium falciparum; type: functional, organism-based
Plasmodium berghei [4] = test: Antimalarial activity against Plasmodium berghei infected in sc dosed mouse; type: functional; details: Plasmodium berghei
Plasmodium yoelii [5] = test: Antimalarial activity against Plasmodium yoelii infected in sc dosed mouse; type: functional
Plasmodium yoelii [6] = test: Antimalarial activity against Plasmodium yoelii infected in po dosed mouse; type: functional
Plasmodium berghei [7] = test: Antimalarial activity against Plasmodium berghei infected in po dosed mouse; type: functional
Plasmodium falciparum [8] = test: Antimalarial activity against ART-sensitive Plasmodium falciparum NF54; type: functional, organism-based
Plasmodium falciparum [9] = test: Antimalarial activity against ART-resistant Plasmodium falciparum NF54 harboring […] mutant; type: functional, organism-based
Plasmodium falciparum [10] = test: Antimalarial activity against ART-sensitive Plasmodium falciparum W2; type: functional, organism-based
Plasmodium falciparum [11] = test: Antimalarial activity against ART-resistant Plasmodium falciparum Dd2 harboring R539T mutant; type: functional, organism-based
Plasmodium falciparum [12] = test: Antimalarial activity against ART-sensitive Plasmodium falciparum 3D7; type: functional, organism-based
Plasmodium falciparum [13] = test: Antimalarial activity against Plasmodium falciparum FcB1 at 100 ng/ml; type: functional
Plasmodium falciparum [14] = test: Antimalarial activity against Plasmodium falciparum FcB1 at 1 ng/ml; type: functional
Plasmodium falciparum [15] = test: Antimalarial activity against Plasmodium falciparum FcB1 at 10 ng/ml; type: functional
Plasmodium falciparum [16] = test: Antimalarial activity against chloroquine resistant Plasmodium falciparum FcB1/Colombia; type: functional, organism-based
[17] = Selectivity index, ratio of IC50 for human AB943 to IC50 for chloroquine resistant Plasmodium falciparum FcB1/Colombia
Plasmodium berghei [18] = test: Antimalarial activity against Plasmodium berghei infected in mouse assessed as increase in survival at 100 mg/kg, po; type: functional
Plasmodium falciparum [19] = test: Antimalarial activity against Plasmodium falciparum Dd2; type: functional, organism-based
Plasmodium falciparum [20] = test: Antimalarial activity against Plasmodium falciparum 3D7; type: functional, organism-based
Plasmodium falciparum [21] = test: Antimalarial activity against Plasmodium falciparum IPC5202; type: functional, organism-based
Plasmodium falciparum [22] = test: Antimalarial activity against Plasmodium falciparum IPC4912; type: functional, organism-based
[23] = Toxicity in brine shrimp; details: artemia salina
Plasmodium falciparum [24] = test: Antimalarial activity against Plasmodium falciparum; type: functional, organism-based
Plasmodium falciparum [25] = test: Antimalarial activity against chloroquine-sensitive Plasmodium falciparum NF54 infected in iv dosed mouse; type: functional
Plasmodium falciparum [26] = test: Antimalarial activity against chloroquine-sensitive Plasmodium falciparum NF54; type: functional, organism-based
Plasmodium falciparum [27] = test: Antimalarial activity against chloroquine-sensitive Plasmodium falciparum NF54 infected in po dosed mouse; type: functional
Plasmodium falciparum [28] = test: Antimalarial activity against Plasmodium falciparum NF54; type: functional, organism-based
Plasmodium falciparum [29] = test: Antimalarial activity against Plasmodium falciparum W2; type: functional, organism-based
Plasmodium falciparum [30] = test: Antimalarial activity against Plasmodium falciparum K1; type: functional, organism-based
[31] = Selectivity index, ratio of IC50 for HEK293 cells to IC50 for Plasmodium falciparum NF54; type: toxicity; details: human, read-out: Ratio IC50

CC(CNCCO[C@H]1O[C@@H]2O[C@]3(C)CC[C@H]4[C@H](C)CC[C@@H]([C@H]1C)[C@@]24OO3)Nc1ccnc2cc(Cl)ccc12 (some centres undefined)
ED50 (Plasmodium vinckei [1]): 1.1 mg/kg | ED50 (Plasmodium vinckei [2]): 12 mg/kg

CC(=O)OCCC[C@]12O[C@H]([C@@H]3OO[C@H]1O3)[C@H](C)C(=O)[C@@H]2C
IC50 (Plasmodium falciparum [3]): 3 microg/cm3

C[C@H]1[C@H](NC2CCOCC2)O[C@@H]2O[C@]3(C)CC[C@H]4[C@H](C)CC[C@@H]1[C@@]24OO3
ED90 (Plasmodium berghei [4]): 0.18 mg/kg | ED90 (Plasmodium yoelii [5]): 1.25 mg/kg | ED90 (Plasmodium yoelii [6]): 1.84 mg/kg | ED90 (Plasmodium berghei [7]): 1.3 mg/kg

C[C@H]1[C@H](N2CCN(c3ccc(S(=O)(=O)N(C)C)c4nonc34)CC2)O[C@@H]2O[C@]3(C)CC[C@H]4[C@H](C)CC[C@@H]1[C@@]24OO3
IC50 (Plasmodium falciparum [8]): 16.4 nM | IC50 (Plasmodium falciparum [9]): 13.5 nM | IC50 (Plasmodium falciparum [10]): 249 nM | IC50 (Plasmodium falciparum [11]): 497 nM | IC50 (Plasmodium falciparum [12]): 348 nM

C[C@@H]1CC[C@H]2[C@@H](C)C(=O)N(CCC(=O)N(CCO)CC(=O)NC(=O)c3ccccc3)[C@@H]3O[C@]4(C)CC[C@@H]1[C@@]23OO4
Activity (Plasmodium falciparum [13]): 100% | Activity (Plasmodium falciparum [14]): 78% | Activity (Plasmodium falciparum [15]): 99%

CCCN(CC(=O)NC(=O)c1ccccc1)C(=O)CCN1C(=O)[C@H](C)[C@@H]2CC[C@@H](C)[C@@H]3CC[C@]4(C)OO[C@]32[C@H]1O4
Activity (Plasmodium falciparum [13]): 100% | Activity (Plasmodium falciparum [14]): 100% | Activity (Plasmodium falciparum [15]): 99%

CCOP(=O)(CCCN(O)C(=O)CCC(=O)N(CCCCNC(=O)CC[C@@H]1O[C@@H]2O[C@@]3(C)CC[C@@H]4[C@@H](C)CC[C@@H]([C@@H]1C)[C@]24OO3)CCCNC(=O)CCO[C@H]1O[C@@H]2O[C@]3(C)CC[C@H]4[C@H](C)CC[C@@H]([C@H]1C)[C@@]24OO3)OCC
IC50 (Plasmodium falciparum [16]): 0.36 nM | Ratio IC50 [17]: 94

C[C@H]1[C@@H](OCC(CO[C@H]2O[C@@H]3O[C@]4(C)CC[C@H]5[C@H](C)CC[C@@H]([C@H]2C)[C@@]35OO4)=NOC(=O)CCC(=O)O)O[C@@H]2O[C@]3(C)CC[C@H]4[C@H](C)CC[C@@H]1[C@@]24OO3
Activity (Plasmodium berghei [18]): 100%

Cn1nnc(NCC2CC[C@]3(CC2)OO[C@]2(O3)C3CC4CC(C3)CC2C4)n1 (some centres undefined)
IC50 (Plasmodium falciparum [19]): 2.1 nM | IC50 (Plasmodium falciparum [20]): 2.9 nM | IC50 (Plasmodium falciparum [21]): 3.4 nM | IC50 (Plasmodium falciparum [22]): 4.8 nM

COCCC[C@]12O[C@H]([C@@H]3OO[C@H]1O3)[C@H](C)C(=O)[C@@H]2C
IC50 (Plasmodium falciparum [3]): 2 microg/cm3

O=P1(N(CCCl)CCCl)NCCCO1 (centres undefined) [CYCLOPHOSPHAMIDE ANHYDROUS]
LC50 [23]: 1.08 µg/mL (≈ 4.14 µM)

C[C@@H]1CC[C@H]2[C@@H](C)C(=O)N(CCC(=O)N(CC(=O)NC(=O)c3ccccc3)C(C)(C)C)[C@@H]3O[C@]4(C)CC[C@@H]1[C@@]23OO4
Activity (Plasmodium falciparum [13]): 100% | Activity (Plasmodium falciparum [14]): 98% | Activity (Plasmodium falciparum [15]): 99%

COC1(c2ccc(S(C)(=O)=O)cc2)CCC2(CCCCC2)OO1 (centres undefined)
IC50 (Plasmodium falciparum [24]): 31 nM

C[C@H]1[C@H](CC(COC(=O)c2cc[n+]([O-])cc2)C[C@H]2O[C@@H]3O[C@]4(C)CC[C@H]5[C@H](C)CC[C@@H]([C@H]2C)[C@@]35OO4)O[C@@H]2O[C@]3(C)CC[C@H]4[C@H](C)CC[C@@H]1[C@@]24OO3 (some centres undefined)
ED50 (Plasmodium falciparum [25]): 0.8 mg/kg | EC50 (Plasmodium falciparum [26]): 0.53 nM | ED50 (Plasmodium falciparum [27]): 2 mg/kg

C1C2CC3CC1CC(C2)[C@]31OO[C@@]2(CCC(Nc3nn[nH]n3)CC2)O1 (some centres undefined)
IC50 (Plasmodium falciparum [19]): 2.5 nM | IC50 (Plasmodium falciparum [20]): 2.8 nM | IC50 (Plasmodium falciparum [21]): 6.1 nM | IC50 (Plasmodium falciparum [22]): 6.8 nM

C[C@H]1[C@@H](OC(=O)c2ccc3[nH]cnc3c2)O[C@@H]2O[C@]3(C)CC[C@H]4[C@H](C)CC[C@@H]1[C@@]24OO3
LC50 [23]: 362 µg/mL (≈ 844 µM) | IC50 (Plasmodium falciparum [20]): 6.96 nM

CC(C)CCC[C@H](C)C1CC[C@H]2[C@@H]3CC=C4C[C@@H](OC(=O)CCCCCN5CCN([C@H]6O[C@@H]7O[C@]8(C)CC[C@H]9[C@H](C)CC[C@@H]([C@H]6C)[C@@]79OO8)CC5)CC[C@]4(C)[C@H]3CC[C@]12C (some centres undefined)
IC50 (Plasmodium falciparum [28]): 78 nM | IC50 (Plasmodium falciparum [29]): 70 nM | IC50 (Plasmodium falciparum [30]): 52 nM | selectivity ratio [31]: 1820
